Results as given in article PMC7356228, “Alvaxanthone, a Thymidylate Synthase Inhibitor with Nematocidal and Tumoricidal Activities” (Molecules, 2020).
Read-outs that look alike come from different tables or passages of the source.

What was measured:
[1] = tested on: BJ cells; assay: Intracellular ATP level (CellTiterGlo); assay type: cell-based, human; conditions: 48-h incubation, normal fibroblasts
Description: Figure 4 Changes of caspase-3/7 activities and intracellular ATP level in BJ, U-118 MG, and SCC-15 cells after 48-h incubation with 5–40 µM alvaxanthone or rheediaxanthone B. Median results are presented of three independent experiments, each performed in triplicate. The whiskers are lower (25%) and upper (75%) quartile ranges.
On the other hand, rheediaxanthone B caused a reduction of ATP level down to around 30% in glioma cells and fibroblasts, and to 20% in squamous carcinoma cells (Figure 4). In general, with increasing Caspase-3/7 activity the ATP level was decreasing, in accord with the results of Reference.
(§1) Influence of selected compounds on cells was tested by performing the cytotoxicity (NR and XTT) assays, proliferation assay, cell adhesion assay, cell migration assay, determination of intracellular ATP level, and apoptosis assay as previously reported.

[2] = tested on: U-118 MG cells; assay: Proliferation (CyQUANT GR, total cellular DNA content); assay type: cell-based, human; conditions: 40 μM, 72 h, BJ vs U-118 MG
Description: (§2) The influence of alvaxanthone and rheediaxanthone B on cell proliferation (Figure 2) was assessed by quantitative measurement of the total cellular DNA content, proportional to the cell number.
(§3) Figure 2 Proliferation of cancer (U-118 MG and SCC-15) and normal (BJ) cells after 72 h incubation with 5–40 μM alvaxanthone or 1.25–40 μM rheediaxanthone B, determined with the CyQUANT GR Cell Proliferation Assay Kit. Median results are presented of three independent experiments, each performed in triplicate. The whiskers are lower (25%) and upper (75%) quartile ranges. […] Images collected with Olympus IX-83 microscope with contrast phase (scale bar = 100 µm).
as §1

[3] = tested on: SCC-15 cells; assay: as above; assay type: cell-based, human; conditions: 40 μM, 72 h, BJ vs SCC-15
Description: as §2, §3, §1

[4] = target: T1, hTS (Homo sapiens, UniProt P04818); assay: Inhibition of TS-catalyzed reaction (tritium release from [5-3H]dUMP); assay type: biochemical
T1 construct: made in house
T1 sequence (P04818 whole entry): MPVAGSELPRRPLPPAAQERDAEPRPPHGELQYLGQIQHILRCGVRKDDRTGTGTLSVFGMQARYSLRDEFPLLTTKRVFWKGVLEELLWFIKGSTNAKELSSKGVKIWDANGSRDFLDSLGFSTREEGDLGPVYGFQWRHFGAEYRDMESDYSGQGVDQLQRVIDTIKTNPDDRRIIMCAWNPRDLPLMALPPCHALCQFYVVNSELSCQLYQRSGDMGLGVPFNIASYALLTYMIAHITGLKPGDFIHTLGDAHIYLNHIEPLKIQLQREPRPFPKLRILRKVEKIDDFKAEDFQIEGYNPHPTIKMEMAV
Description: (§4) The recombinant human, rat, mouse, T. spiralis and C. elegans TS proteins were produced, purified and separated into phosphorylated and non-phosphorylated fraction, as previously described. TS activity was monitored, following tritium release from [5-^3H]dUMP, and its inhibition studied as earlier reported.

[5] = target: T2, mTS (Mus musculus, UniProt P07607); assay: as above; assay type: biochemical; conditions: 20 µM dUMP, 250 µM meTHF
T2 construct: made in house
T2 sequence (P07607 whole entry): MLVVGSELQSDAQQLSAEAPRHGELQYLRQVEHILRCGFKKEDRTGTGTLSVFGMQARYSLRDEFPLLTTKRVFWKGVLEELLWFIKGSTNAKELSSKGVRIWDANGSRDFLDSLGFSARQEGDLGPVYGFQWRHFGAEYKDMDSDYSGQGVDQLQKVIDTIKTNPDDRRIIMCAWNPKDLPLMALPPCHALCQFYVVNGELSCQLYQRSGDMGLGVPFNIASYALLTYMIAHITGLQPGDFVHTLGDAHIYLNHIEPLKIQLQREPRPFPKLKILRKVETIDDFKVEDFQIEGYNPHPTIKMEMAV
Description: as §4

[6] = tested on: normal human gingival fibroblasts (HGF); design: method as in Hou et al. [41]; conditions: 24 h incubation; ref Hou et al. [41]; cited from earlier work
[7] = tested on: U-118 MG cells; assay: Cell adhesion, crystal violet assay; assay type: cell-based, human; conditions: 48-h treatment
Description: (§5) Cancer metastasis, resulting from an impairment of adhesion between cancer cells and the extracellular matrix may cause cell migration from a primary tumor into distant parts of an organism. The cristal violet assay was used to examine alvaxanthone and rheediaxanthone B ability to influence cellular adhesion.
(§6) Figure 3 Influence of alvaxanthone or rheediaxanthone B on BJ, U-118 MG, and SCC-15 cells adhesion after 48-h treatment. The crystal violet assay was used. Results are medians of triplicate assays of three independent experiments expressed as a % of non-treated controls. The whiskers are lower (25%) and upper (75%) quartile ranges. * p ≤ 0.05, Kruskal–Wallis test (against non-treated control).
as §1

[8] = tested on: SCC-15 cells; assay: Cell adhesion, crystal violet assay; assay type: cell-based, human; conditions: 48-h treatment
Description: as §5, §6, §1

[9] = tested on: BJ cells; assay: Cell adhesion, crystal violet assay; assay type: cell-based, human; conditions: 48-h treatment
Description: as §5, §6, §1

[10] = Cytotoxicity, neutral red uptake (NR) assay; assay type: cell-based, human; conditions: human, BJ normal skin fibroblasts; NR assay, 40 µM, 48 h, fibroblasts
Description: (§7) Biological effect of alvaxanthone and rheediaxanthone B on normal (BJ) and cancer cells (U-118 MG and SCC-15) was estimated using two viability assays, the neutral red uptake (NR) and tetrazolium salts reduction (XTT) assays.
(§8) Human glioblastoma cells U-118 MG (ATCC® HTB-15), human squamous carcinoma cells SCC-15 (ATCC® CRL-1623), and normal human skin fibroblasts (ATCC® CRL-2522) were grown, their morphology checked, and number and viability estimated as earlier presented.
as §1

[11] = tested on: BJ normal human skin fibroblasts; assay: Cytotoxicity, neutral red uptake (NR) assay; assay type: cell-based; conditions: Homo sapiens, Skin fibroblast; neutral red assay, BJ; read-out: IC50
Description: as §7, §8, §1

[12] = target: T3, CeTS (Caenorhabditis elegans, UniProt Q9Y052); assay: Inhibition of TS-catalyzed reaction (tritium release from [5-3H]dUMP); assay type: biochemical, C. elegans; conditions: 20 µM dUMP, 250 µM meTHF
T3 sequence (Q9Y052 1-315): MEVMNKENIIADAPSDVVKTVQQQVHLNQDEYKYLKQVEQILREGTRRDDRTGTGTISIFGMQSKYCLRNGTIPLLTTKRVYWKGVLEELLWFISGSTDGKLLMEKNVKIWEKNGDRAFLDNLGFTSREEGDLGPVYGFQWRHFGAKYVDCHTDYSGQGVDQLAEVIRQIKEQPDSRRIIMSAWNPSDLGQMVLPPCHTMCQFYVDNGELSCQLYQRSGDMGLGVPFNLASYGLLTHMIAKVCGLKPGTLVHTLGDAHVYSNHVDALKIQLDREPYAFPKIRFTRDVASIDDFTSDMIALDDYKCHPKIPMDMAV
Description: as §4

[13] = tested on: U-118 MG cells; assay: Tetrazolium salts reduction (XTT) assay; assay type: cell-based, human; conditions: U-118 MG vs BJ, 48 h
Description: as §7
(§9) Thus, alvaxanthone may be damaging mitochondria and impairing their metabolism exerting one of possible mechanisms active in destroying cancer cells. Changes of cell morphology in dependence on increasing alvaxanthone and rheediaxanthone B concentration were also recorded. While the glioma and squamous carcinoma cells formed clusters, lost their adhesion, shrank, and accumulated less NR dye, normal fibroblasts preserved rather normal shapes but the amount of the neutral red dye and confluence of cells decreased. In addition, a lower number of BJ cells was detected (Figure 1B).
as §1

[14] = tested on: SCC-15 cells; assay: Tetrazolium salts reduction (XTT) assay; assay type: cell-based, human
Description: as §7, §9, §1

[15] = tested on: BJ, U-118 MG and SCC-15 cells; assay: NR assay, summary over the three cell lines; assay type: cell-based, human; conditions: 48 h, span over BJ
Description: as §7, §9, §1

[16] = tested on: C. elegans; assay: Toxicity to C. elegans (population growth); conditions: Caenorhabditis elegans, read-out: LC50 (reduction of growth of the nematode population)
Description: C. elegans was maintained as previously described. The effect of the compounds studied on C. elegans population growth was determined as earlier presented.

[17] = tested on: thymidylate synthase (TS); assay: Time dependence of TS inhibition (initial results); assay type: biochemical; conditions: suggesting slow-binding character
Description: as §4

[18] = compound 100 µM, read-out: % Remaining Activity

## C=CC(C)(C)c1c(O)cc2oc3c(O)c(O)cc(CC=C(C)C)c3c(=O)c2c1O [Alvaxanthone (15), Alvaxanthone]
[1]
  change of ATP level: slight decrease
[2]
  proliferation inhibition weaker with normal (BJ) than cancer cells: 2.3 fold
[3]
  proliferation inhibition weaker with normal (BJ) than cancer cells: 5.8 fold
[4]; 20 µM dUMP and 50 µM meTHF, mean ± S.E.M. (N=3) for alvaxanthone, rheediaxanthone B not repeated, read-out: IC50
  IC50: 6.3 ± 1.6 µM
[4]; 20 µM dUMP, 250 µM meTHF, read-out: IC50 Assessment
  IC50: < 10 µM
[4]; compound 10 µM, 20 µM dUMP, 250 µM meTHF
  remaining activity at 10 µM: 39%
[5]; compound 10 µM
  remaining activity at 10 µM: 79%
[5]; [18]
  remaining activity at 100 µM: 40%
[6]
  IC50: 25 µM
[7]
  concentration at which reduction of adhesion is significant/apparent: 40 µM
[8]
  concentration at which reduction of adhesion is significant/apparent: 20 µM
[9]
  concentration at which reduction of adhesion is significant/apparent: 20 µM
[10]
  viability at 48 h, 40 µM: 35%
[11]
  IC50: 15.8 µM
[12]; compound 10 µM
  remaining activity at 10 µM: 85%
[12]; [18]
  remaining activity at 100 µM: 18%
[13]
  selectivity: more sensitive compared to BJ fibroblasts: 2.7 fold
[14]; Homo sapiens, SCC-15
  IC50: 17 µM
[14]; SCC-15 vs BJ, 48 h
  selectivity: more sensitive compared to BJ fibroblasts: 5.3 fold
[15]; Homo sapiens
  IC50: > 15 µM
[15]
  IC50: < 18 µM
[16]
  LC50: 4.6 ± 0.57 µM
[17]
  character of inhibition: time-dependent inhibition
